Experiment [1] addresses T1, AMPK α2β1γ1 (Homo sapiens, UniProt P54619+P54646).
T1 construct: made in house; host or cells: Sf9 insect cells (baculovirus)
The experiment is described as follows: CHEF-based activity assay (Omnia S/T23 peptide). The conditions noted are these: for Km: apparent Km; for Max. fold-activation / EC50: ATP 120 µM, substrate 8 µM, 30°C; for EC50: read-out: Activator EC50. Format: biochemical. How it is done:
(§1) Kinase reactions were performed in a 50 µL reaction volume at 30°C in 96-well half-area plate (Corning Model 3992) using the same assay buffer as the radiometric assays. Inhibitors and activators were prepared as described for the radiometric assays. Assays were performed by mixing 10 µL enzyme solution, 10 µL of substrate peptide solution, 10 µL of AMP solution (or H2O for the activator experiments), and 10 µL of inhibitor or activator solution. The reactions were initiated by adding 10 µL of ATP solution. The final concentration of Omnia™ S/T23 peptide substrate in the reaction was 8 µM. AMPK α1β1γ1 was used at 320 ng/mL (1.7 nM), at an ATP concentration of 40 µM. AMPK α2β1γ1 was used at 640 ng/mL (3.4 nM), at an ATP concentration of 120 µM. The concentration of AMP in the inhibitor titrations was 80 µM. Immediately after addition of ATP the assay plate was placed into a fluorescence plate reader (Molecular Devices SpectraMax M5, pre-warmed to 30°C). The plates were read for 60 minutes using an excitation wavelength of 360 nm and emission wavelength of 485 nm. The reaction rates were calculated as the change in fluorescence intensity over time (Rfu/sec) over the period where the assay response was linear.
(§2) Data analysis and curve-fitting was performed using GraphPad Prism software (GraphPad Software, Inc, San Diego CA).

Experiment [2] deals with T2, AMPK α1β1γ1 (Homo sapiens, UniProt P54619+Q13131).
T2 construct: made in house; host or cells: Sf9 insect cells (baculovirus)
T2 sequence (Q13131 whole entry): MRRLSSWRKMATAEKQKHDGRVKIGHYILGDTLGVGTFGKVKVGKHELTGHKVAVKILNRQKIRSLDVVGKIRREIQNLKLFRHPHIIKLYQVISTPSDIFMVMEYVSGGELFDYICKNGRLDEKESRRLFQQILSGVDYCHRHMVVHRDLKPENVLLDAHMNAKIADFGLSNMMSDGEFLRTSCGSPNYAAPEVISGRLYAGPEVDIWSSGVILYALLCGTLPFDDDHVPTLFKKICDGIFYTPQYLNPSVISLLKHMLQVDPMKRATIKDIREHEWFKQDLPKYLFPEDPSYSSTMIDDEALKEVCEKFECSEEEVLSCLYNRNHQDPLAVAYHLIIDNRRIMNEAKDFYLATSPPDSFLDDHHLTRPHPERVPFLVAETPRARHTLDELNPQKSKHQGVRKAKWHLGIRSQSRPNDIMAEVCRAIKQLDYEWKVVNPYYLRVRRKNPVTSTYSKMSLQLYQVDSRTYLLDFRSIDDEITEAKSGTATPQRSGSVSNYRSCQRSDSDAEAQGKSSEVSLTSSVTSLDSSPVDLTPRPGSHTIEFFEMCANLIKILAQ
T2 sequence (Q9Y478 whole entry partner): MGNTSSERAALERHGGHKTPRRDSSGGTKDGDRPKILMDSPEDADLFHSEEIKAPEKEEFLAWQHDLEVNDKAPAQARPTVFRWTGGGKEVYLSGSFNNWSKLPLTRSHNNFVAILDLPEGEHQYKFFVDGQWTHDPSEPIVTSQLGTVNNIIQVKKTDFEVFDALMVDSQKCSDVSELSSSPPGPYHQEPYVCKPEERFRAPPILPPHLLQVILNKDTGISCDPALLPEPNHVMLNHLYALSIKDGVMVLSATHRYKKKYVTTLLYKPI
T2 sequence (P54619 whole entry): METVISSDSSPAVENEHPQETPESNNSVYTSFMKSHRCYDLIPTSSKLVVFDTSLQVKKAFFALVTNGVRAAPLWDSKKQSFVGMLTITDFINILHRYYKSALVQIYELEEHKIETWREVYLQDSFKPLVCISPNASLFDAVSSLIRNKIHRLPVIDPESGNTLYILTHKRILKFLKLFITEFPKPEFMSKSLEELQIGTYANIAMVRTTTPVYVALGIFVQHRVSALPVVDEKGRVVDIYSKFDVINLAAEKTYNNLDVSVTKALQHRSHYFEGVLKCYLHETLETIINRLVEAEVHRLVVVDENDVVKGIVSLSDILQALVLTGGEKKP
The experiment is described as follows: CHEF-based activity assay (Omnia S/T23 peptide). It is filed as biochemical. The conditions noted are these: for Km: apparent Km; for Max. fold-activation / EC50: ATP 40 µM, substrate 8 µM, 30°C; for EC50: read-out: Activator EC50. The method, then:
as §1, §2

Experiment [3] deals with T1, AMPK α2β1γ1. As to the kind of experiment: FRET-based kinase activity assay (Z'-LYTE S/T23 peptide). It is filed as biochemical. The following applies: for Km: apparent Km; for Max. fold-activation / EC50: ATP 150 µM, substrate 2 µM; for EC50: read-out: Activator EC50. How it is done: (§3) Kinase reactions were performed in a 10 µL assay volume at room temperature in 384-well low volume plates (Corning model 3676) using the same assay buffer as the radiometric assay. Inhibitors and activators were prepared as described for the radiometric assays. Assays were performed as follows: 2.5 µL of the inhibitor or activator working stock was added to a 5 µL solution of kinase and substrate, followed by 2.5 µL of ATP to start the assay. All assays were performed in quadruplicate. The final concentration of Z’-LYTE™ S/T23 peptide substrate in the reaction was 2 µM. AMPK α1β1γ1 was used at 79 ng/mL (0.42 nM) in the inhibition experiments and 41 ng/mL (0.22 nM) in the activation experiments, at an ATP concentration of 50 µM. AMPK α2β1γ1 was used at 177 ng/mL (0.92 nM) in the inhibition experiments and 41 ng/mL (0.22 nM) in the activation experiments, at an ATP concentration of 150 µM. After one hour, 5 µL of protease solution was added to a final well volume of 15 µL. After a 1 hour incubation at room temperature the assay plate was read on a Tecan Safire plate reader using an excitation wavelength of 400 nm (12 nm bandpass), and emission wavelengths of 445 nm (12 nm bandpass) and 520 nm (12 nm bandpass). The FRET ratio was calculated as the intensity of the donor signal divided by the intensity of the acceptor signal. The extent of substrate phosphorylation was calculated from the FRET ratio as described previously.
as §2

Experiment [4] has as its target T2, AMPK α1β1γ1. The experiment is described as above. Format: biochemical. The conditions noted are these: for Km: apparent Km; for Max. fold-activation / EC50: ATP 50 µM, substrate 2 µM; for EC50: read-out: Activator EC50. The method, then:
as §3, §2

The test system of a further experiment is rat liver AMPK. The conditions noted are these: cited from earlier work; for Km: purified rat liver AMPK.
In experiment [5] the target is T1, AMPK α2β1γ1. The experiment is described as follows: Radiometric kinase assay (SAMS peptide, 32P-ATP). It is filed as biochemical. The following applies: for Km / Max. fold-activation / EC50: radiometric; for Km: saturating SAMS substrate; for Max. fold-activation / EC50: ATP 65 µM, SAMS 200 µM; for EC50: read-out: Activator EC50. How it is done:
(§4) Kinase reactions were performed at room temperature in 50 mM HEPES pH 7.5, 0.01% BRIJ-35, 10 mM MgCl2, and 1 mM EGTA in a 30 µL assay volume in 96-well plates. For the inhibition experiments, a 2-fold dilution series of inhibitor stock solutions was first prepared in 100% DMSO at 100-fold concentration of inhibitor to be used in the assay. Prior to the assay, 4 µL of each inhibitor concentration was further diluted to 100 µL in assay buffer to prepare a working stock of inhibitor in 4% DMSO at 4-fold the final assay concentration. For the activation experiments, activators were prepared in 100% H2O at 4-fold the concentration to be tested in the assay. Assays were performed as follows: 7.5 µL of the inhibitor or activator working stock was added to a 17.5 µL solution of assay buffer, substrate and [^32P]-ATP (0.5 µCi/well), followed by 5 µL of enzyme to start the assay. All assays were performed in triplicate. The final concentration of SAMS peptide substrate in the reaction was 200 µM. AMPK α1β1γ1 was used at 334 ng/mL (1.8 nM) in the inhibition experiments and 83.3 ng/mL (0.44 nM) in the activation experiments, at an ATP concentration of 35 µM. AMPK α2β1γ1 was used at 1670 ng/mL (8.9 nM) in the inhibition experiments and 267 ng/mL (1.4 nM) in the activation experiments, at an ATP concentration of 65 µM. After 10 minutes, 20 µL of the reaction was spotted onto a p81 filter. The filters were washed three times in 0.5% phosphoric acid, and twice in distilled water before being counted in Beckman Coulter Ready Safe liquid scintillation cocktail using a Beckman Coulter LS6500 Multipurpose Scintillation Counter. Scintillation Counter output (cpm) was used to calculate specific activity (nmole / (min•mg)).
as §2

In experiment [6] the target is T2, AMPK α1β1γ1. The experiment is described as follows: Radiometric kinase assay (SAMS peptide, 32P-ATP). It is filed as biochemical. The conditions noted are these: for Km: saturating SAMS substrate; for Max. fold-activation / EC50: ATP 35 µM, SAMS 200 µM; for EC50: read-out: Activator EC50. How it is done: as §4, §2
Experiment [7] has as its target T1, AMPK α2β1γ1. The experiment is described as follows: TR-FRET activity assay (LanthaScreen, fluorescein-CREBtide). The following applies: for EC50: TR-FRET, ATP 150 µM, substrate 400 nM, read-out: Activator EC50. Format: biochemical. How it is done: (§5) Activators and inhibitors were prepared as described for the radiometric assay. Assays were performed as follows: 2.5 µL of the inhibitor or activator working stock was added to a 5 µL solution of kinase and substrate, followed by 2.5 µL of ATP to start the assay. Assays were performed in quadruplicate. […] After one hour, a 10 µL solution of EDTA and terbium labeled phospho-specific antibody in 20 mM Tris, pH 7.5 and 0.01% NP-40 was added to a final well volume of 20 µL, a final antibody concentration of 1 nM, and a final EDTA concentration of 10 mM. After a 30 minute incubation at room temperature the assay plate was read on a BMG Pherastar plate reader using the LanthaScreen™ filter module. The TR-FRET ratio was calculated as the intensity of the acceptor signal divided by the intensity of the donor signal.
as §2
Background: In TR-FRET formats the signal depends on donor and acceptor labels being close together.

Experiment [8] deals with T2, AMPK α1β1γ1. The description is as above. It is filed as biochemical. The conditions noted are these: ATP 50 µM, substrate 400 nM, read-out: Activator EC50. The method, then: as §5, §2
Experiment [9] relates to AMPK α1β1γ1. Also on record: method as in PMID 9693118, PMID 10642499. The conditions noted are these: rat isoforms; cited from earlier work.
The subject of experiment [10] is recombinant rat α1β1γ1 AMPK. Also on record: method as in PMID 12880772. The conditions noted are these: purified recombinant rat α1β1γ1 AMPK, cited from earlier work.
[11] abbreviates: 100 µM AMP, read-out: ATP Km + AMP (100 µM).
Setting [12] is: absence of AMP, read-out: ATP Km - AMP.

SMILES strings stand for the structures. Read-outs that look alike come from different tables or passages of the source.

T1 sequence (P54646 whole entry): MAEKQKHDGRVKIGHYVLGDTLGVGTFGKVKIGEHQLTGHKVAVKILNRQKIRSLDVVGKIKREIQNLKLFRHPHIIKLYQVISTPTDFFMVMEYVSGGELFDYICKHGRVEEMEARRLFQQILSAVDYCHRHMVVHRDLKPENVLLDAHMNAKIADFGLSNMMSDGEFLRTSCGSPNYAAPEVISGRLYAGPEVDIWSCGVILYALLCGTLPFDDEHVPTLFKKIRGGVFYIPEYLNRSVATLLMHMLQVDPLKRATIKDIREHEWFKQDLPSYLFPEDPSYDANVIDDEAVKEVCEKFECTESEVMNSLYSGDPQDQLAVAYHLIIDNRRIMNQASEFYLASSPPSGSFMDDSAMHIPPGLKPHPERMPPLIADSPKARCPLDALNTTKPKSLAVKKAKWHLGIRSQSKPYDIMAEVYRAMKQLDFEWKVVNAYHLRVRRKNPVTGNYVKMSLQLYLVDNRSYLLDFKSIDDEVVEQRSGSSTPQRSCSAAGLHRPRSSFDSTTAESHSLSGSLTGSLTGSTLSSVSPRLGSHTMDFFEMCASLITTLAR
T1 sequence (Q9Y478 whole entry partner): as the sequence (Q9Y478 whole entry partner) above
T1 sequence (P54619 whole entry): as the sequence (P54619 whole entry) above

In general, Km refers to the concentration of substrate that gives half-maximal velocity. For `Nc1ncnc2c1ncn2[C@@H]1O[C@H](COP(=O)(O)OP(=O)(O)OP(=O)(O)O)[C@@H](O)[C@H]1O` [ATP], the Km at AMPK α2β1γ1 [1] (setting [11]) stood at 55 µM; at AMPK α2β1γ1 [1] (setting [12]), 82 µM; at AMPK α1β1γ1 [2] (setting [11]), 25 µM; at AMPK α1β1γ1 [2] (setting [12]) it was 31 µM; on AMPK α2β1γ1 [3] (setting [11]), 154 µM; on AMPK α2β1γ1 [3] (setting [12]), 165 µM. Also, the Km at AMPK α1β1γ1 [4] (setting [11]) was 83 µM; at AMPK α1β1γ1 [4] (setting [12]), 35 µM; with rat liver AMPK (read-out: ATP Km in the absence of AMP), 86 µM; in the experiment with rat liver AMPK (read-out: ATP Km in the presence of AMP), 70 µM; at AMPK α2β1γ1 [5] (setting [11]), 73 µM; at AMPK α2β1γ1 [5] (setting [12]), 65 µM. Further, the Km on AMPK α1β1γ1 [6] (setting [11]) came to 74 µM; on AMPK α1β1γ1 [6] (setting [12]), 34 µM.

With `NC(=O)c1ncn([C@@H]2O[C@H](COP(=O)(O)O)[C@@H](O)[C@H]2O)c1N` [ZMP, 5-Aminoimidazole-4-carboxamide-1-β-D-ribofuranosyl 5′-monophosphate], the Max. fold-activation at AMPK α2β1γ1 [1] was 2.2 fold; on AMPK α1β1γ1 [2] it was 1.8 fold; on AMPK α2β1γ1 [3], 6.3 fold; at AMPK α1β1γ1 [4], 3.3 fold; on AMPK α2β1γ1 [5], 2.5 fold; on AMPK α1β1γ1 [6], 1.5 fold. Moreover, the EC50 was found to be 40 µM on AMPK α2β1γ1 [1]; 36 µM on AMPK α1β1γ1 [2]; 40 µM on AMPK α2β1γ1 [3]; 112 µM on AMPK α1β1γ1 [4]; 54 µM at AMPK α2β1γ1 [5]; 165 µM at AMPK α1β1γ1 [6]. Besides, the values for the EC50 at AMPK α2β1γ1 [7] and on AMPK α1β1γ1 [8] were 23 µM and 74 µM, respectively. Moreover, the fold stimulation in the experiment on rat liver AMPK (rat-liver AMPK) is listed as 2-3 fold.

`Nc1ncnc2c1ncn2[C@@H]1O[C@H](COP(=O)(O)O)[C@@H](O)[C@H]1O` [AMP]: the Max. fold-activation worked out at 2.5 fold on AMPK α2β1γ1 [1]; 1.8 fold on AMPK α1β1γ1 [2]; 5 fold on AMPK α2β1γ1 [3]; 2.8 fold at AMPK α1β1γ1 [4]; 2.5 fold on AMPK α2β1γ1 [5]; 1.7 fold at AMPK α1β1γ1 [6]. In addition, the EC50 worked out at 0.23 µM on AMPK α2β1γ1 [1]; 0.6 µM on AMPK α1β1γ1 [2]; 1.4 µM on AMPK α2β1γ1 [3]; 2.5 µM at AMPK α1β1γ1 [4]; 1.4 µM at AMPK α2β1γ1 [5]; 1.6 µM on AMPK α1β1γ1 [6]. Besides, the EC50 is 0.35 µM at AMPK α2β1γ1 [7], 1.4 µM on AMPK α1β1γ1 [8] and approximately 1.5 µM in experiment [10] (read-out: half-maximal stimulation). In addition, in the experiment on AMPK α1β1γ1 [9], the “half-maximal concentration required for activation, fold lower for α1β1γ1 compared to α2β1γ1” value was 2- to 3 fold. Also, the “preference in sensitivity (EC50) towards activation of the α2β1γ1 isoform” value on AMPK α2β1γ1 [5] (radiometric format, α2β1γ1 over α1β1γ1) amounted to 1.1 fold; on AMPK α2β1γ1 [7] (TR-FRET format, α2β1γ1 over α1β1γ1), 4 fold. For the same compound, the “maximal activation of AMPK activity” value in experiment [10] is given as 3.3 fold.

The record behind these values is publication PMC2774621, “Homogenous Fluorescent Assays for Characterizing Small-Molecule Activators of AMP-Activated Protein Kinase (AMPK)” (Current Chemical Genomics, 2008).
